The values that follow come from EP0177414A1, “Jodized triaminobenzene compounds, process for their preparation and their use in contrast products” (GUERBET S.A., priority 1984, dated 1986).

Each structure is given as a SMILES string. ≈ marks a conversion by molar mass, not a printed value.

Data set [1] can be described thus: Neurotoxicity: acute toxicity by intracerebral administration. On the set-up: species or system souris. The conditions noted are these: mouse, in vivo, female SWISS OF1 mice, toxicity noted 7 days after administration, read-out: DL50 IC. The source says:
- la toxicité aiguë des composés a été déterminée sur souris femelles (poids 20 g) de souche SWISS OF1 par administration intra-cérébrale selon la technique décrite par HOLEY et Mc CQRMICK dans :
Pharmacological effects produced by intracerebral injection of drugs in the conscious mouse BRIT.J.PHARMACOL. 12, 2. 1957.
5 animaux sont utilisés par dose, les volumes administrés sont de 0,05 cm^3 - 0,07 cm^3 - 0,10 cm^3 par souris soit 2,5 - 3,5 et 5 cm^3 par kg, avec des vitesses d'injection lentes.
La toxicité (DL50) est notée 7 jours après l'administration. 2) Osmolalité

Data set [2] can be described thus: Stability to sterilisation. The format is physicochemical. The conditions noted are these: treated at 121 °C for 10 mn.
Data set [3] is described as follows: Osmolality by cryoscopy (FISKE-OS osmometer). It counts as physicochemical. The source says:
(§1) - l'osmolalité exprimée en mosmoles par kg, est déterminée par cryoscopie à l'aide d'un osmomètre de type FISKE-OS Les résultats sont donnés dans le tableau suivant où l'on a également donné 1a solubilité des composés

The nature of data set [4]: Solubility. It counts as physicochemical. Conditions: read-out: Solubilité.
Excerpt: as §1

Consider `CC(=O)N(CC(O)CO)c1c(I)c(NC(=O)C(C)O)c(I)c(N(CC(O)CO)C(C)=O)c1I` (centres unmarked) [Exemple 9, 2,4,6-triiodo-1-(2-hydroxypropionyl-amino)-3,5-bis [N-(2,3-dihydroxy propyl)acétamido]benzène], for which the LD50 at 168 h in data set [1] is 3500 µmol/kg. Also, in data set [2], the “stables à la stérilisation” value was “ne présentent pas de modifications”. In data set [3], this compound showed an Osmolalité of 690 mosmol par kg. In data set [4], the solubility amounted to 1000 mM (≈ 805 mg/mL).

Consider `CC(=O)N(CC(O)CO)c1c(I)c(N(CC(O)CO)C(C)=O)c(I)c(N(CC(O)CO)C(C)=O)c1I` (centres unmarked) [Exemple 3, 2,4,6-triiodo-1,3,5-tris [N-(2,3-dihydroxy propyl)acétamido]benzène], for which the LD50 at 168 h in data set [1] is 4000 µmol/kg. The “stables à la stérilisation” value in data set [2] is “ne présentent pas de modifications”. The Osmolalité in data set [3] came to 630 mosmol par kg. For the same compound, the solubility in data set [4] was found to be 1000 mM (≈ 849 mg/mL).

With `COCC(=O)Nc1c(I)c(N(CC(O)CO)C(C)=O)c(I)c(N(CC(O)CO)C(C)=O)c1I` (centres unmarked) [Exemple 8], the LD50 at 168 h in data set [1] is 3300 µmol/kg. Further, in data set [2], the “stables à la stérilisation” value was “ne présentent pas de modifications”. In addition, the solubility in data set [4] was 940 mM (≈ 757 mg/mL).
